# Test results from publication PMC12176101 (Drug Design, Development and Therapy, 2025).
# Residues, ends and D or L forms follow the SMILES beside them.
# Biological target: AChE (Homo sapiens, UniProt P22303)
# Assay: In vitro anti-AChE assay
# Format: biochemical
# AChE, sequence (P22303 32-614): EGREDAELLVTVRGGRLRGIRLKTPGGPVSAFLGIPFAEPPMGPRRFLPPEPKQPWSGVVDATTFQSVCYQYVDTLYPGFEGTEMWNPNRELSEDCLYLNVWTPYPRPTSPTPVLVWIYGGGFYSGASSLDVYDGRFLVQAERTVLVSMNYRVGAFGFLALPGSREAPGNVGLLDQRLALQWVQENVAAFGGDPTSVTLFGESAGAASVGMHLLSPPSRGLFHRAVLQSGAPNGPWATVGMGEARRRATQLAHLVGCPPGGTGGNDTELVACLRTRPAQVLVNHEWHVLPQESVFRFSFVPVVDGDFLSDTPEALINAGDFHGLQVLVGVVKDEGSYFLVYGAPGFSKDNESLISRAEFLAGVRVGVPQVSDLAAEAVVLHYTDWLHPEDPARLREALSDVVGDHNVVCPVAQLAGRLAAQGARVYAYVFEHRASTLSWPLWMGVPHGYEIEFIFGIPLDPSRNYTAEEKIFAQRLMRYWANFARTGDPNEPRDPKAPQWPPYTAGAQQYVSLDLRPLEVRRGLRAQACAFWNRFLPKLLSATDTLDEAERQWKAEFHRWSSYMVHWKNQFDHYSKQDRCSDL
row,Compound,IC50 [nM]
1,CSCC[C@H](NC(=O)[C@@H](NC(=O)[C@H](Cc1c[nH]cn1)NC(=O)[C@@H](N)CC(C)C)[C@@H](C)O)C(=O)N[C@@H](CCC(=O)O)C(=O)N[C@@H](CC(C)C)C(=O)N[C@@H](CC(C)C)C(=O)O [LHTMELL] (H-LHTMELL-OH),10600
2,CC[C@H](C)[C@H](NC(=O)[C@H](Cc1c[nH]c2ccccc12)NC(=O)[C@@H](N)C(C)C)C(=O)N[C@H](C(=O)NCC(=O)N[C@@H](Cc1ccccc1)C(=O)N[C@@H](CCC(=O)O)C(=O)N[C@@H](Cc1c[nH]cn1)C(=O)N[C@@H](CCSC)C(=O)O)[C@@H](C)CC [VWIIGFEHM] (H-VWIIGFEHM-OH),3900
3,CC(C)C[C@H](NC(=O)[C@H](Cc1c[nH]cn1)NC(=O)[C@@H](N)Cc1c[nH]c2ccccc12)C(=O)N[C@@H](CS)C(=O)N[C@H](C(=O)N[C@@H](CC(C)C)C(=O)N[C@@H](Cc1ccccc1)C(=O)O)C(C)C [WHLCVLF] (H-WHLCVLF-OH),1500
4,CC[C@H](C)[C@H](NC(=O)[C@@H](N)Cc1c[nH]c2ccccc12)C(=O)NCC(=O)N[C@@H](CS)C(=O)N[C@@H](Cc1c[nH]c2ccccc12)C(=O)N[C@@H](CC(=O)O)C(=O)O [WIGCWD] (H-WIGCWD-OH),1900
